Laboratory results from PMC11847541, “Liver fatty acid binding protein FABP1 transfers substrates to cytochrome P450 4A11 for catalysis” (The Journal of Biological Chemistry, 2025).
Read-outs that look alike come from different tables or passages of the source.

Legend:
[1] = test system: P450 4A11; set-up: species or system human
Excerpt: To predict the potential effects of FABP1 on P450 4A11 catalysis, we programmed two computational models in KinTek Explorer to reflect those presented in Figure 2 (i.e., free ligand model versus direct transfer model). The models were equipped with the rate constants and/or Kd values estimated for either palmitate or DAUDA (where applicable) and for protein–protein binding, which are summarized in Table 2. As is indicated in Table 2, certain rate constants necessary for the modeling are estimated based on a known Kd value and an individual known rate constant. To predict the kinetic result of the free ligand model, the rate(s) of transfer (k6, k-6) were set to a value of zero, reflecting the predicted inability of the two proteins to interact. The interaction of P450 and FABP1 occurs in the absence of substrate, although whether the P450–FABP1 (EF) complex can accept a substrate (to form EFS) is unknown. The modeling software estimated a 1 µM Kd value for the interaction with the assumption that the complex could not accept a cytosolic substrate. To predict the kinetic result of the direct transfer model, our experimentally estimated rates of transfer were allowed to be fit by the model. Aside from the manipulations with the transfer rate, all remaining rate constants were input as they appear in Table 2.
When provided the experimental conditions for the kinetic assays in Figure 12, the free ligand model predicted that the rate of P450 catalysis decreases rapidly as the concentration of FABP1 approaches the concentration of substrate in the experiment (Fig. 12A, blue line), which is intuitive (given the difference in palmitate binding affinities; Table 1, Table 2 and 2). Provided the same conditions, the direct transfer model predicted a slight attenuation of P450 activity (as the concentration of FABP1 approaches the total concentration of substrate (S)), which yielded an excellent fit to our experimental data when a rate of P450 catalysis of 0.11 s^−1 was used (Fig. 12A, red line). […] In a separate experiment, the free ligand model similarly predicted that P450 activity would not be observed when the concentration of substrate was below the concentration of FABP1 (Fig. 12B, blue line). The direct transfer model predicted a hyperbolic product distribution (for [S] < [FABP1]) and gave a satisfactory fit to the experimental data when the same rates of ES^′→ES described earlier were used, but the rate of P450 catalysis was reduced 20-fold (to 0.005 s^−1) (Fig. 12B, red line).
Data were imported into KinTek Explorer software (version 11.01; KinTek, https://kintekcorp.com/software) ([76]) as Excel txt files and processed using an Apple computer (operating system 11.6.2, Apple). The kinetic modeling of a binding titration of FABP1 with palmitate (Fig. S13) as well as the txt files used for all kinetic modeling are provided in the Supporting Information.

[2] = target: T1, P450 4A11 (Homo sapiens, UniProt Q02928); format: binding; set-up: made in house; host or cells: E. coli; settings: for substrate transfer rate from FABP1 to P450 4A11: FABP1, DAUDA, palmitate 0.2 μM each, P450 4A11 2 μM
T1 sequence (Q02928 5-519): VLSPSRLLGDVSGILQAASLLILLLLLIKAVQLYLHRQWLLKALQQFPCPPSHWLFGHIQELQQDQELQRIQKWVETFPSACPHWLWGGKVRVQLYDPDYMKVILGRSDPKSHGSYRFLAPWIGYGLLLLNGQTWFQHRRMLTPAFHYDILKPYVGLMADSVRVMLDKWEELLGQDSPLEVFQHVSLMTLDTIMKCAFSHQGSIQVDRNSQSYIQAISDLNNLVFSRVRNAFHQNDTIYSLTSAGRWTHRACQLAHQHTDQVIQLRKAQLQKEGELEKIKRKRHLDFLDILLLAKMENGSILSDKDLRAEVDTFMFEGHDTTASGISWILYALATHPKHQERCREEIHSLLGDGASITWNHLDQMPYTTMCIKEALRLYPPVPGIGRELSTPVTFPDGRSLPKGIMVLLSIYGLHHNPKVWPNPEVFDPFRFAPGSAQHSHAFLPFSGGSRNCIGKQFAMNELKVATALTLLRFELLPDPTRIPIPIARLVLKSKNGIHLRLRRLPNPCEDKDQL
Procedure: Set up as a reverse experiment of the fluorescence displacement assay (Fig. 5), this experiment involved mixing equimolar concentrations (0.2 μM) of DAUDA, FABP1, and palmitate to form a solution ( FDS↔FD+S↔FS+D ) with low fluorescence (Fig. 5A). That solution was then rapidly mixed with an excess of P450 4A11 (2 μM), and the gain of fluorescence was monitored (i.e., as substrate was transferred from FABP1 to P450, either as FDS + P450 → FD + P450-S or as FS + P450 + D → P450-S + F + D → FD; Fig. 5A). As expected, we observed a weak but reproducible stimulation of fluorescence in this experiment (n = 6 shots), and the data were fit to single exponential equation yielding a substrate transfer rate (k6) of 4.2 ± 0.9 s^−1 (Fig. 11).
Figure 11 Rate of palmitate transfer (ktransfer) from FABP1 to P450 4A11. A stoichiometric mixture of FABP1, DAUDA, and palmitate (0.2 μM) was mixed with P450 4A11 (2 μM), and the gain of fluorescence (>420 nm) was monitored (i.e., as FDS + E → FD + ES, Fig. 5A). Six traces were averaged and fit to a single exponential equation, yielding a rate of 4.2 ± 0.9 s^−1. […] replicate experiments were averaged to generate the trace. DAUDA, 11-dansylaminoundecanoic acid; FABP1, fatty acid binding protein.
To estimate the rate of transfer of palmitate from FABP1 to P450 4A11, a mixture of palmitate, FABP1, and DAUDA (0.4 μM, each component) was mixed against a solution of P450 4A11 (4 μM). All components were diluted twofold to their final concentrations in the mixing process. The experiment was performed with stopped-flow parameters identical to the experiments of FABP1 with lipids (aforementioned), and data were processed in the same manner, with the exception that a smoothing factor of 0.4 was applied to the data (in Microsoft Excel) prior to curve fitting.

substrate transfer rate from FABP1 to P450 4A11 [2] [s⁻¹]	reduction of rate of P450 catalysis, Fig. 12B vs Fig. 12A model [1] [fold]	Compound	Kd [1] [nM]	rate of transfer to P450 4A11 relative to transfer to phospholipid membranes [2] [fold]	forward rate of ES′→ES conformational transition ([1]; direct transfer model) [s⁻¹]	reverse rate of ES′→ES conformational transition ([1]; direct transfer model) [s⁻¹]	rate of P450 catalysis used in direct transfer model ([1]; fit to Fig. 12A (FABP1 varied, palmitate 5 μM)) [s⁻¹]	rate of P450 catalysis used in direct transfer model ([1]; fit to Fig. 12B (palmitate varied, FABP1 5 μM)) [s⁻¹]
~5	–	FABP1: delipidated recombinant liver fatty acid binding protein with C-terminal hexahistidine tag	1000	~1000	–	–	–	–
4.2 ± 0.9	20	CCCCCCCCCCCCCCCC(=O)O [Palmitate (C16), palmitate]	–	–	0.086	0.013	0.11	0.005
